Measured values taken from patent US8557796B2, “Substituted 1-oxa-2,8-diaza-spiro [4,5] dec-2-ene derivatives and related treatment methods” (Gruenenthal GmbH, priority 2001, dated 2013).

Experiments:
5HT-uptake = biological target: T1, 5HT-uptake (Rattus norvegicus, UniProt P31652); assay: Serotonin uptake inhibition (5HT uptake) in synaptosomes; assay type: biochemical; conditions: rat brain synaptosomes
T1 construct: synaptosomes from rat brain regions were freshly isolated; from tissue; host or cells: P2 synaptosome fraction from rat brain regions
T1 sequence (P31652 whole entry): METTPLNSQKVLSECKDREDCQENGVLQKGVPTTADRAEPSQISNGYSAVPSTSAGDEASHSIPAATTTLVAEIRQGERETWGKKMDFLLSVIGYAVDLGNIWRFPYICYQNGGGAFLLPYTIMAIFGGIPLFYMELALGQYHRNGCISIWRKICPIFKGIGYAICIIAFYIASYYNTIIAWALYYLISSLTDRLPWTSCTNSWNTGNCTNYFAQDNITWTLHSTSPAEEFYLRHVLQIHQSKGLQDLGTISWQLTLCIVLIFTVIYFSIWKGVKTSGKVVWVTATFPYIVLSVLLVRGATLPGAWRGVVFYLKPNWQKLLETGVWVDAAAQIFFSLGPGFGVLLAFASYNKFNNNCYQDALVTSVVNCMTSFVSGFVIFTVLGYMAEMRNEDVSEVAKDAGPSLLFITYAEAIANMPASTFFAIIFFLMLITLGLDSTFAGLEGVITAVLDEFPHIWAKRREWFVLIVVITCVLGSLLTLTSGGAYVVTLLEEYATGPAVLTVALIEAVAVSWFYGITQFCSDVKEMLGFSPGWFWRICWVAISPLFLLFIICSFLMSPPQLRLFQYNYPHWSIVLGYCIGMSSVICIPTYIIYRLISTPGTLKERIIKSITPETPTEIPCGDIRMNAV
Description: Tests on Serotonin Uptake (5HT Uptake Inhibition)

NA transporter = biological target: T2, NA transporter (Rattus norvegicus, UniProt Q9WTR4); assay: Noradrenalin uptake inhibition (NA-uptake) in synaptosomes; assay type: biochemical; conditions: rat hypothalamus synaptosomes
T2 construct: synaptosomes from rat brain regions were freshly isolated; from tissue; host or cells: P2 synaptosome fraction from hypothalamus of male rat brain
T2 sequence (Q9WTR4 1-597): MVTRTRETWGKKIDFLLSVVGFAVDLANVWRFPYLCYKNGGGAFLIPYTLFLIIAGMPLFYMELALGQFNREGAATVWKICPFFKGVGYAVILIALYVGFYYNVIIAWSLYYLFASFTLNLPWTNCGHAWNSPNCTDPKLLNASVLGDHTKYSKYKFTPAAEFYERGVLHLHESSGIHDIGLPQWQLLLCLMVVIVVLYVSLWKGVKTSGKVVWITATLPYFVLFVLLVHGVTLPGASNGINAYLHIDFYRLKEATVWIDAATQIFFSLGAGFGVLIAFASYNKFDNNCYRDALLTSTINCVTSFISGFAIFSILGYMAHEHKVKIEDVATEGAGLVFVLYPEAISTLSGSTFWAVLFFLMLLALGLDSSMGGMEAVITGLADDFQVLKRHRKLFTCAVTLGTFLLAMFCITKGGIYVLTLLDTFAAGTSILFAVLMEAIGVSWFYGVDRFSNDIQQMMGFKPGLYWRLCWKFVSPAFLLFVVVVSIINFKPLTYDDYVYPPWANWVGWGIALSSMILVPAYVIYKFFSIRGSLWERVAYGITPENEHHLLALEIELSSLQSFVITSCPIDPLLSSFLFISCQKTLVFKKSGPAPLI
Description: Tests on Noradrenalin Uptake Inhibition (NA-Uptake Inhibition)
In order to be able to carry out these in vitro studies, synaptosomes from rat brain regions were freshly isolated.

Compound	inhibition at 10 µM (5HT-uptake) [%]	5HT-uptake, 10 μM, % inhibition (5HT-uptake) [%]	further results
Cc1ccc(F)cc1S(=O)(=O)N1CCC2(CC1)CC(C(=O)NCc1cccs1)=NO2 [Example 150, 8-(5-fluoro-2-methyl-benzenesulphonyl)-1-oxa-2,8-diaza-spiro[4,5]dec-2-ene-3-carboxylic acid (thiophen-2-ylmethyl)-amide]	70	–	inhibition at 10 µM (NA transporter): 48%
O=C(NC1CCCC1)C1=NOC2(CCN(C(=O)c3ccc([N+](=O)[O-])cc3Cl)CC2)C1 [Example 5, 8-(2-chloro-4-nitro-benzoyl)-1-oxa-2,8-diaza-spiro[4,5]dec-2-ene-3-carboxylic acid cyclopentylamide]	59	–	inhibition at 10 µM (NA transporter): 53%
CC1CCCCN1CCCNC(=O)C1=NOC2(CCN(S(=O)(=O)c3cc(Cl)ccc3Cl)CC2)C1 (stereo not shown) [Example 15, 8-(2,5-dichloro-benzenesulphonyl)-1-oxa-2,8-diaza-spiro[4,5]dec-2-ene-3-carboxylic acid[3-(2-methyl-piperidin-1-yl)-propyl]-amide]	–	55	NA-uptake, 10 μM, % inhibition (NA transporter): 41%
O=C(NCCc1ccc(Cl)c(Cl)c1)C1=NOC2(CCN(S(=O)(=O)c3ccc(OC(F)(F)F)cc3)CC2)C1 [Example 165]	–	41	NA-uptake, 10 μM, % inhibition (NA transporter): 55%
Cc1cccc(N2CCN(C(=O)C3=NOC4(CCN(S(=O)(=O)c5cccs5)CC4)C3)CC2C)c1 (stereo not drawn) [Example 31, (3-methyl-4-m-tolyl-piperazin-l-yl)-[8-(thiophene-2-sulphonyl)-1-oxa-2,8-diaza-spiro[4,5]dec-2-en-3-yl]-methanone]	–	69	NA-uptake, 10 μM, % inhibition (NA transporter): 66%
Cc1ccc(S(=O)(=O)N2CCC3(CC2)CC(C(=O)NC2CCCC2OCc2ccccc2)=NO3)cc1 (stereo not shown) [Example 73, 8-(toluene-4-sulphonyl)-1-oxa-2,8-diaza-spiro[4,5]dec-2-ene-3-carboxylic acid (2-benzyloxy-cyclopentyl)-amide]	–	–	5HT-uptake, 10 μM, % inhibition (5HT-uptake; 10 µM): 46%; NA-uptake, 10 μM, % inhibition (NA transporter; 10 µM): 93%
CN(Cc1cccnc1)C(=O)C1=NOC2(CCN(S(=O)(=O)c3cccc(C(F)(F)F)c3)CC2)C1 [Example 101, 8-(3-trifluoromethyl-benzenesulphonyl)-1-oxa-2,8-diaza-spiro[4,5]dec-2-ene-3 carboxylic acid methyl-pyridin-3-ylmethyl-amide]	46	–	inhibition at 10 µM (NA transporter): 43%
N#CCCN(Cc1cccnc1)C(=O)C1=NOC2(CCN(S(=O)(=O)c3cc(Cl)ccc3Cl)CC2)C1 [Example 99, 8-(2,5-dichloro-benzenesulphonyl)-1-oxa-2,8-diaza-spiro[4,5]dec-2-ene-3-carboxylic acid (2-cyano-ethyl)-pyridin-3-ylmethyl-amide]	44	–	–
O=C(NCc1cccc(F)c1)C1=NOC2(CCN(S(=O)(=O)c3cccs3)CC2)C1 [Example 24, 8-(thiophene-2-sulphonyl)-1-oxa-2,8-diaza-spiro[4,5]dec-2-ene-3-carboxylic acid 3-fluorobenzylamide]	40	–	–
CCCC(=O)N1CCC2(CC1)CC(C(=O)NC1CCN(C(=O)OCC)CC1)=NO2 [Example 74, 4-[(8-butyryl-1-oxa-2,8-diaza-spiro[4,5]dec-2-ene-3-carbonyl)-amino]-piperidine-l-carboxylic acid ethyl ester]	–	43	–
CC(=O)N1CCC2(CC1)CC(C(=O)NCc1ccccc1)=NO2 [Example 48, 8-acetyl-1-oxa-2,8-diaza-spiro[4,5]dec-2-ene-3-carboxylic acid benzylamide]	41	–	–
CCOC(=O)N1CCC(NC(=O)C2=NOC3(CCN(C(=O)c4ccc(Br)cc4)CC3)C2)CC1 [Example 62, 4-{[8-(4-bromo-benzoyl)-1-oxa-2,8-diaza-spiro[4,5]dec-2-ene-3-carbonyl]-amino)-piperidine-l-carboxylic acid ethyl ester]	–	73	–
CCSCCNC(=O)C1=NOC2(CCN(C(=O)c3ccc(Br)cc3)CC2)C1 [Example 154]	–	48	–
Cc1ccc(S(=O)(=O)N2CCC3(CC2)CC(C(=O)N2CCN(C(=O)Cc4ccccc4)CC2)=NO3)cc1 [Example 25, 2-phenyl-1-{4-[8-(toluene-4-sulphonyl)-1-oxa-2,8-diaza-spiro[4,5]dec-2-ene-3 carbonyl]-piperazin-1-yl)-ethanone]	51	–	–
CCOC(=O)CCNC(=O)C1=NOC2(CCN(C(=O)c3cc(F)cc(F)c3)CC2)C1 [Example 81, 3-{[8-(3,5-difluoro-benzoyl)-1-oxa-2,8-diaza-spiro[4,5]dec-2-ene-3-carbonyl]-amino}-propionic acid ethyl ester]	46	–	–
CN(CCc1c[nH]c2ccccc12)C(=O)C1=NOC2(CCN(S(=O)(=O)c3ccc(OC(F)(F)F)cc3)CC2)C1 [Example 16, 8-(4-trifluoromethoxy-benzenesulphonyl)-1-oxa-2,8-diaza-spiro[4,5]dec-2-ene-3 carboxylic acid [2-(1 H-indo1-3-yl)-ethyl]-methyl-amide]	–	60	–
CCc1ccc(C(=O)N2CCC3(CC2)CC(C(=O)NCc2cccs2)=NO3)cc1 [Example 52, 8-(4-ethyl-benzoyl)-1-oxa-2,8-diaza-spiro[4,5]dec-2-ene-3-carboxylic acid (thiophen-2-ylmethyl)-amide]	60	–	–

Compound	inhibition at 10 µM (5HT-uptake) [%]	5HT-uptake, 10 μM, % inhibition (5HT-uptake) [%]	further results
Cc1ccc(C(=O)N2CCC3(CC2)CC(C(=O)NCC2CC2)=NO3)c(F)c1F [Example 159, 8-(2,3-difluoro-4-methyl-benzoyl)-1-oxa-2,8-diaza-spiro[4,5]dec-2-ene-3-carboxylic acid cyclopropylmethyl-amide]	40	–	–
O=C(C1=NOC2(CCN(S(=O)(=O)Cc3ccccc3)CC2)C1)N1CCN(Cc2ccc3ccccc3c2)CC1 [Example 6, (4-naphthalen-2-ylmethyl-piperazin-l-yl)-(8-phenylmethane-sulphonyl-1-oxa-2,8 diaza-spiro[4,5]dec-2-en-3-yl)-methanone]	–	54	–
CC(=O)NCCNC(=O)C1=NOC2(CCN(S(=O)(=O)c3cc(F)ccc3C)CC2)C1 [Example 17, 8-(5-fluoro-2-methyl-benzenesulphonyl)-1-oxa-2,8-diaza-spiro[4,5]dec-2-ene-3 carboxylic acid (2-acetylamino-ethyl)-amide]	46	–	–
CCN(CC)c1ccc(C(=O)NNC(=O)C2=NOC3(CCN(S(=O)(=O)c4cccs4)CC3)C2)cc1 [Example 10, 4-diethylamino-benzoic acid N′-[8-(thiophene-2-sulphonyl)-1-oxa-2,8-diaza-spiro[4,5]dec-2-ene-3-carbonyl]-hydrazide]	40	–	–
COc1ccc(S(=O)(=O)N2CCC3(CC2)CC(C(=O)NC(CC(C)C)C(=O)OC(C)(C)C)=NO3)cc1 (stereo not shown) [Example 147, 2-{[8-(4-methoxy-benzenesulphonyl)-1-oxa-2,8-diaza-spiro[4,5]dec-2-ene-3-carbonyl]-amino}-4-methyl-pentanoic acid tert-butyl ester]	67	–	–
CCCCCC(=O)N1CCC2(CC1)CC(C(=O)NCC1CC1)=NO2 [Example 158, 8-hexanoyl-1-oxa-2,8-diaza-spiro[4,5]dec-2-ene-3-carboxylic acid cyclopropylmethyl-amide]	42	–	–
CCOC(=O)CCNC(=O)C1=NOC2(CCN(S(=O)(=O)c3cc([N+](=O)[O-])ccc3C)CC2)C1 [Example 95]	–	54	–
O=C(NCc1cccs1)C1=NOC2(CCN(C(=O)c3ccccc3Cl)CC2)C1 [Example 152, 8-(2-chloro-benzoyl)-1-oxa-2,8-diaza-spiro[4,5]dec-2-ene-3-carboxylic acid (thiophen-2-ylmethyl)-amide]	41	–	–
CN(C)c1cccc(C(=O)N2CCC3(CC2)CC(C(=O)NCCC#N)=NO3)c1 [Example 43, 8-(3-dimethylamino-benzoyl)-1-oxa-2,8-diaza-spiro[4,5]dec-2-ene-3-carboxylic acid (2-cyano-ethyl)-amide]	41	–	–
Cc1ccc(S(=O)(=O)NC(Cc2ccccc2)C(=O)N2CCC3(CC2)CC(C(=O)NCCC#N)=NO3)cc1 (stereo not shown) [Example 41, 8-[3-phenyl-2-(toluene-4-sulphonylamino)-propionyl]-1-oxa-2,8-diaza-spiro[4,5]dec-2-ene-3-carboxylic acid (2-cyano-ethyl)-amide]	70	–	–
O=C(NCc1cc(F)ccc1F)C1=NOC2(CCN(S(=O)(=O)c3ccc(Cl)s3)CC2)C1 [Example 49, 8-(5-chloro-thiophene-2-sulphonyl)-1-oxa-2,8-diaza-spiro[4,5]dec-2-ene-3 carboxylic acid 2,5-difluoro-benzylamide]	50	–	–
CCOC(=O)N1CCC(NC(=O)C2=NOC3(CCN(S(=O)(=O)c4cc([N+](=O)[O-])ccc4C)CC3)C2)CC1 [Example 90, 4-{[8-(2-methyl-5-nitro-benzenesulphonyl)-1-oxa-2,8-diaza-spiro[4,5]dec-2-ene-3-carbonyl]-amino}-piperidine-1-carboxylic acid ethyl ester]	48	–	–
O=C(C1=NOC2(CCN(S(=O)(=O)c3cc(Cl)ccc3Cl)CC2)C1)N1CCN(c2ncnc3sccc23)CC1 [Example 29]	–	42	–
N#CCCN(CC1CCCO1)C(=O)C1=NOC2(CCN(S(=O)(=O)c3cc(Cl)ccc3Cl)CC2)C1 (stereo not shown) [Example 100]	–	43	–
O=C(NCC1CC1)C1=NOC2(CCN(C(=O)c3cccc(Cl)c3Cl)CC2)C1 [Example 157, 8-(2,3-dichloro-benzoyl)-1-oxa-2,8-diaza-spiro[4,5]dec-2-ene-3-carboxylic acid cyclopropylmethyl-amide]	52	–	–
O=C(NCc1cc(F)cc(C(F)(F)F)c1)C1=NOC2(CCN(S(=O)(=O)c3cc(Cl)ccc3Cl)CC2)C1 [Example 39, 8-(2,5-dichloro-benzenesulphonyl)-1-oxa-2,8-diaza-spiro[4,5]dec-2-ene-3-carboxylic acid 3-fluoro-5-trifluoromethyl-benzylamide]	65	–	–
